Entries after “also recorded” stand apart in the source; their conditions may differ.
How the values were obtained:
Format in all cases: in vivo
[1] = Blood glucose levels in NOD mice (glucose oxidase method); details: NOD mice
Description: NOD mice were dosed with maltol to evaluate its effect on the pathogenesis of type I diabetes. Mice received 5 mg maltol/mouse every other day from age 2 weeks until they were 20 weeks old. Maltol extracted from ginseng as described in Example 2 was used for the first 10 weeks, then maltol purchased from Sigma Co., St. Louis, MO was used thereafter. The mice were kept until they were 35 weeks old. Urine glucose was measured at 3-day intervals from 10 to 35 weeks of age. Urinary glucose and ketone levels were determined using Diastix and Ketostix reagent slips (Miles, Ontario, Canada). Individual mice were classified as being diabetic on the basis of positive glycosuria^38. […] In contrast, 78% of age-matched control mice (22 mice) spontaneously developed autoimmune diabetes. At 35 weeks of age, fasting (8 hours of fasting) and non-fasting blood glucose levels were measured. Blood was obtained from the retro-orbital venous plexus of fasting and nonfasting NOD mice. Glucose levels were measured enzymatically by the glucose oxidase method with o-dianisidine dihydrochloride as the reactive dye ^39-41 . The mean nonfasting blood glucose level of 35 ICR mice (nondiabetic control mice; NOD mice were derived from ICR mice) was 149±27 mg/dl. Any non-fasting mouse with a blood glucose level greater than 230 mg/dl (3 SD above the mean) was scored as diabetic. The mean fasting blood glucose level of 38 ICR mice was 137±28 mg/dl. Any fasting mouse with a blood glucose level greater than 221 mg/dl (3 SD above the mean) was scored as diabetic.

[2] = Pancreatic insulin content (immunoreactive insulin, radioimmunoassay) in NOD mice; details: NOD mice
Description: Insulin was extracted from the pancreas of non-obese diabetic (NOD) mouse by known methods ^33,34. Briefly, deep frozen pancreatic tissue (50% of each pancreas) was placed into phosphate buffered saline (PBS) and then extraction solution A (380 ml absolute alcohol, 20 ml H2 O, 8 ml concentrated HCl and some drops of alcoholic phenol red) was added. This mixture was homogenized with polytron type PT 10-20-[…] in glass tubes (15×125 mm) for 30 seconds in position 5. The homogenized material in the tubes was incubated at 4° C. for 10 hours. At the end of the incubation period, the homogenized material was centrifuged at 800 g for 5 minutes for clarification. The supernatant was saved. The pellet was re-extracted with 1 ml of extraction solution B (356 ml absolute alcohol, 124 ml H2 O and 7.5 ml HCl). The pellet in extraction solution B was incubated for 4 hours at 4° C. and then homogenized with a polytron as described above. The homogenized material was centrifuged at 800 g for 5 minutes. The supernatant was pooled with the supernatant from the first extraction. The pooled supernatant was neutralized with concentrated NH40 H (about 10 μl ) until the phenol red turned to purple. The neutralized supernatant was precipitated at 4° C. and then centrifuged at 800 g for 5 min. The supernatant, which contains insulin, was used for the measurement of insulin by radioimmunoassay. The concentration of immunoreactive insulin (IRI) in the pancreas from DPD-treated and untreated NOD mice was measured by radioimmunoassay techniques ^42-44 using mouse insulin as a standard. Briefly, the extracted samples from NOD mice were mixed with […], and anti-insulin antibody. The mixed materials were incubated for 2 hours at room temperature. At the end of the incubation period, anti-guinea pig IgG raised in sheep was added and the mixture was incubated for 30 minutes at room temperature. At the end of the incubation, the samples were centrifuged at 1500 g for 10 minutes. The supernatant was completely removed. The radioactivity of the pellets was measured. The percent of activity was determined by the following formula: [formula] On the basis of % activity in standards, a standard curve was constructed. The concentration of each unknown sample from maltol-treated or untreated NOD pancreas was read on the basis of the standard curve. […] The maltol-treated mice have insulin levels that are similar to the non-diabetic, untreated animals. About 75% of the maltol-treated mice have insulin levels over 80 μg/g pancreas and about 25% have insulin levels between 55-75 μg/g pancreas.

[3] = Blood glucose levels in GK rats (NIDDM model), glucose tolerance test
Description: To see whether DPD, alone or in combination with other modalities, had any effect on the control of blood glucose levels, GK rats were treated daily from 4 to 14 weeks of age with one of the following: At 14 weeks of age, glucose tolerance tests were performed by intraperitoneal injection of 2 mg glucose/gm body weight. Blood glucose levels were determined 60 minutes later using methods previously described^64-67. Rats receiving DPD alone were intubated daily with a 1.18 % (w/v) solution of DPD in PBS. At 4 weeks of age, rats received 0.5 ml of the 1.18% solution of DPD. This was increased by 0.1 ml/week so that rats at 14 weeks of age received 1.5 ml of the 1.18% solution of DPD. Control rats received the same volume of PBS only. Rats receiving OSA alone were intubated daily with an aqueous extract of OSA. The extract was prepared by adding 10% dried powdered OSA plant to boiling water, keeping the mixture at the boiling point in a sealed container for 3-4 hours, removing the supernatant, then cooling it for use in intubating the GK rats. This supernatant will be referred to as 10% OSA extract. At 4 weeks of age, rats received 0.5 ml of the 10% OSA extract. This was increased by about 0.15 ml/week so that rats at 14 weeks of age received 2.0 ml of the 10% OSA extract. Control rats received the same volume of PBS. […]

Structure (SMILES): Cc1occc(=O)c1O [DPD, maltol]
- Hyperglycemia / clinical diabetes by blood glucose (in words) [1]: do not exhibit hyperglycemia; also recorded: prevents clinical diabetes
- Pancreatic insulin / protection from beta cell destruction (in words) [2]: prevents depression of pancreatic insulin levels
- Blood Glucose ([3]; DPD 1.18% (w/v) in PBS oral daily, 4 to 14 weeks of age, 60 minutes after i.p. 2 mg glucose/gm, PBS control 389 ± 23): 349 ± 42 mg/dL
- Effect on control of blood glucose levels (in words) ([3]; GK rats): some reduction of blood glucose levels

Reference: patent US5470873A, “Diabetes prevention and treatment using gamma-pyrones” (University Technologies International, Inc., priority 1994, dated 1995)
